The record followed here is ChEMBL document CHEMBL2073748, “Na(+)-dependent carnitine transport by organic cation transporter (OCTN2): its pharmacological and toxicological relevance” (J Pharmacol Exp Ther, 1999).

Holding throughout (type): functional, cell-based
Series [1] deals with T1, Organic cation/carnitine transporter 2 (Homo sapiens, UniProt O76082).
T1 sequence (O76082 whole entry): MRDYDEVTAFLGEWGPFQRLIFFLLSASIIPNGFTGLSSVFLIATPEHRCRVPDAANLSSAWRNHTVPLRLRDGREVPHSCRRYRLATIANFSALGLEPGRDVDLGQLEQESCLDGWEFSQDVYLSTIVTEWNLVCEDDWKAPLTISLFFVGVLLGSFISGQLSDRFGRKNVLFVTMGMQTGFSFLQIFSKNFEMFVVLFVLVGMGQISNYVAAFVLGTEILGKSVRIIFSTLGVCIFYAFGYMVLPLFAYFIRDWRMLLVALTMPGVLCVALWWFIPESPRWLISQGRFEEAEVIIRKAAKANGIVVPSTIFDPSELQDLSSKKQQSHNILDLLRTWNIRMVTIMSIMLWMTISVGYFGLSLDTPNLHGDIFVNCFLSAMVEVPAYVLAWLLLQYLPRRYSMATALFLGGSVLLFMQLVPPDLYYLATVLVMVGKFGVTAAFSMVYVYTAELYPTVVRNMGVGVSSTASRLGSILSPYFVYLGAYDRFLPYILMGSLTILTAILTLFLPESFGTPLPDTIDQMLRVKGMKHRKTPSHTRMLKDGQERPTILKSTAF
Kind of series: TP_TRANSPORTER: inhibition of Carnitine uptake (Carnitine: 0.010? uM, alphaKG: 500 uM) in OCTN2-expressing HEK293 cells. The settings on record: hek293, 500 µM.

The target in series [2] is T1, Organic cation/carnitine transporter 2. Kind of series: TP_TRANSPORTER: inhibition of Carnitine uptake (Carnitine: 0.010? uM, PAH: 500 uM) in OCTN2-expressing HEK293 cells. The settings on record: hek293, 500 µM.
Series [3] has the same target. Kind of series: TP_TRANSPORTER: uptake in OCTN2-expressing HEK293 cells.
Series [4] has the same target. Kind of series: TP_TRANSPORTER: inhibition of Carnitine uptake (Carnitine: 0.010? uM, Gly-Sar: 500 uM) in OCTN2-expressing HEK293 cells. To be noted: hek293, 500 µM.
The target is the same in series [5]. Kind of series: TP_TRANSPORTER: inhibition of Carnitine uptake (Carnitine: 0.010? uM, Guanidine: 500 uM) in OCTN2-expressing HEK293 cells. To be noted: hek293, 500 µM.
Series [6] shares this target. Kind of series: TP_TRANSPORTER: inhibition of Carnitine uptake (Carnitine: 0.010? uM, NMN: 500 uM) in OCTN2-expressing HEK293 cells. The settings on record: hek293, 500 µM.
The target is the same in series [7]. Kind of series: TP_TRANSPORTER: inhibition of Carnitine uptake (Carnitine: 0.010? uM, Norfloxacin: 500 uM) in OCTN2-expressing HEK293 cells. To be noted: hek293, 500 µM.
For series [8] the target is unchanged. Kind of series: TP_TRANSPORTER: inhibition of Carnitine uptake (Carnitine: 0.010? uM, Pivalate: 500 uM) in OCTN2-expressing HEK293 cells. The settings on record: hek293, 500 µM.
Series [9] shares this target. Kind of series: TP_TRANSPORTER: inhibition of Carnitine uptake (Carnitine: 0.010? uM, SPLX: 500 uM) in OCTN2-expressing HEK293 cells. The settings on record: hek293, 500 µM.

Non-standard residues stand in square brackets, D forms with d. Residues, ends and D or L forms follow the SMILES beside them. Sar = CNCC(=O)O

Consider `O=C(O)CCC(=O)C(=O)O` [ALPHA-KETOGLUTARIC ACID], for which the Activity result in series [1] is “is not an inhibitor [-]”.
Consider `Nc1ccc(C(=O)NCC(=O)O)cc1` [AMINOHIPPURIC ACID], for which the figures for the Activity entry in series [2] and in [3] were “is not an inhibitor [-]” and “is not a substrate [-]”, respectively.
In the case of `CN(CC(=O)O)C(=O)CN` [GLYCYLSARCOSINE] (H-Gly-[Sar]-OH), the Activity result in series [4] was “is not an inhibitor [-]”.
For `N=C(N)N` [GUANIDINE], the Activity result in [5] was “is not an inhibitor [-]”; in [3] it was “is not a substrate [-]”.
For `CNC(=O)c1cccnc1` [NICOTINYL METHYLAMIDE], the Activity entry in series [6] is “is not an inhibitor [-]”.
As to `CCn1cc(C(=O)O)c(=O)c2cc(F)c(N3CCNCC3)cc21` [NORFLOXACIN], the Activity entry in series [7] is “is not an inhibitor [-]”.
On to `CC(C)(C)C(=O)O` [PIVALATE], for which, in [8], the Activity entry is “is not an inhibitor [-]”.
Consider `C[C@@H]1CN(c2c(F)c(N)c3c(=O)c(C(=O)O)cn(C4CC4)c3c2F)C[C@H](C)N1` [SPARFLOXACIN], for which the Activity result in series [9] is “is not an inhibitor [-]”.
